# According to patent publication US8450342B2, “Perharidines as CDK inhibitors” (Centre Nationale de la Recherche Scientifique, priority 2008, dated 2013):
# “And” between values parts separate entries of the source, which are not always exact repeats. Equal entries are not always repeated. Where two headings read alike, the source gives them in different places.
# How the values were obtained:
# CK1δ/ε = test: CK1 kinase assay; format: biochemical, porcine
# Method: (§1) Blank values were subtracted and activities expressed in % of the maximal activity, i.e. in the absence of inhibitors. Controls were performed with appropriate dilutions of dimethylsulfoxide.
# [1] = system: SH-SY5Y human neuroblastoma cells; test: Cell survival (MTS assay), SH-SY5Y; format: cell-based
# Method: (§2) SH-SY5Y human neuroblastoma cells were grown in DMEM medium (Invitrogen, Cergy Pontoise, France). […] Human foreskin primary fibroblasts (kindly provided by Dr. Gilles Ponzio) were grown in DMEM supplemented with 2 mM L-glutamine and 20 mM HEPES. All the media were supplemented with antibiotics (penicillin-streptomycin) from Lonza and 10% volume of FCS from Invitrogen. Cells were cultured at 37° C. with 5% CO2. Drug treatments were performed on exponentially growing cultures at the indicated time and concentrations. Control experiments were carried out using appropriate dilutions of DMSO. MDCK cell-lines were used to test compounds PKD.
# CDK5/p25 = target: T1, CDK5/p25 (Homo sapiens, UniProt Q00535); test: CDK5/p25 kinase assay; format: biochemical
# T1 construct: made in house
# T1 sequence (Q00535 whole entry): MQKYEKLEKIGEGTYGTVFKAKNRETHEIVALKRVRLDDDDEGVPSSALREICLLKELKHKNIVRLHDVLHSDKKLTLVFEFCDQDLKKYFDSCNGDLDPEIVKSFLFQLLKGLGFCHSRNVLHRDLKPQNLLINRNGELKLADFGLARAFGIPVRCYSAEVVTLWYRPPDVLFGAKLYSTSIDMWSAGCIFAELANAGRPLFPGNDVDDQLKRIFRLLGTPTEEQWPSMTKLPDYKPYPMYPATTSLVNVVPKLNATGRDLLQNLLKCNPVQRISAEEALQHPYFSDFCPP
# T1 sequence (Q15078 99-307 partner limits assumed): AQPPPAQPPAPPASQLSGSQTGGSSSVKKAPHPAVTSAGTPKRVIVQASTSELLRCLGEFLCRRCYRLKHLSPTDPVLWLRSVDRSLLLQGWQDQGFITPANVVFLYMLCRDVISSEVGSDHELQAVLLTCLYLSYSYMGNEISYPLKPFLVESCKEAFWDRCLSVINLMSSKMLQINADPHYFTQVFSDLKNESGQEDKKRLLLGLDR
# Method: (§3) Controls were performed with appropriate dilutions of dimethylsulfoxide.
# (§4) ATP (3,000 Ci/mmol; 10 mCi/ml) in a final volume of 30 μl. After 30 min. incubation at 30° C., 25 μl aliquots of supernatant were spotted onto 2.5×3 cm pieces of Whatman P81 phosphocellulose paper, and, 20 sec. later, the filters were washed five times (for at least 5 min. each time) in a solution of 10 ml phosphoric acid/liter of water. The wet filters were counted in the presence of 1 ml ACS (Amersham) scintillation fluid.
# GSK-3α/β = GSK-3α/β kinase assay; format: biochemical, porcine
# Method: as §1
# CDK1/cyclin B = CDK1/cyclin B kinase assay; format: biochemical, starfish
# Method: as §3, §4
# CDK9/cyclin T = target: T2, CDK9/cyclin T (Homo sapiens, UniProt P50750); test: CDK9/cyclin T kinase assay; format: biochemical
# T2 construct: made in house; host or cells: insect cells
# T2 sequence (P50750 whole entry): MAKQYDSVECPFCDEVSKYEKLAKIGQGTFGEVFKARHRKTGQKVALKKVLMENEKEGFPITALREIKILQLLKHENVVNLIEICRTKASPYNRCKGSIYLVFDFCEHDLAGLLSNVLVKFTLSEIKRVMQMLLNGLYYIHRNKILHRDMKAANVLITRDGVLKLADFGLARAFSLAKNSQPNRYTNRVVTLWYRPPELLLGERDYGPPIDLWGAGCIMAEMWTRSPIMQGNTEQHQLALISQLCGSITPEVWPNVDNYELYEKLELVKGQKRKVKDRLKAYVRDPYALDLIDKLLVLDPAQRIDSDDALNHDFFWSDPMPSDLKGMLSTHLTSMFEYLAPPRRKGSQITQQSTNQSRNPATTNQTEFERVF
# T2 sequence (O60563 whole entry partner): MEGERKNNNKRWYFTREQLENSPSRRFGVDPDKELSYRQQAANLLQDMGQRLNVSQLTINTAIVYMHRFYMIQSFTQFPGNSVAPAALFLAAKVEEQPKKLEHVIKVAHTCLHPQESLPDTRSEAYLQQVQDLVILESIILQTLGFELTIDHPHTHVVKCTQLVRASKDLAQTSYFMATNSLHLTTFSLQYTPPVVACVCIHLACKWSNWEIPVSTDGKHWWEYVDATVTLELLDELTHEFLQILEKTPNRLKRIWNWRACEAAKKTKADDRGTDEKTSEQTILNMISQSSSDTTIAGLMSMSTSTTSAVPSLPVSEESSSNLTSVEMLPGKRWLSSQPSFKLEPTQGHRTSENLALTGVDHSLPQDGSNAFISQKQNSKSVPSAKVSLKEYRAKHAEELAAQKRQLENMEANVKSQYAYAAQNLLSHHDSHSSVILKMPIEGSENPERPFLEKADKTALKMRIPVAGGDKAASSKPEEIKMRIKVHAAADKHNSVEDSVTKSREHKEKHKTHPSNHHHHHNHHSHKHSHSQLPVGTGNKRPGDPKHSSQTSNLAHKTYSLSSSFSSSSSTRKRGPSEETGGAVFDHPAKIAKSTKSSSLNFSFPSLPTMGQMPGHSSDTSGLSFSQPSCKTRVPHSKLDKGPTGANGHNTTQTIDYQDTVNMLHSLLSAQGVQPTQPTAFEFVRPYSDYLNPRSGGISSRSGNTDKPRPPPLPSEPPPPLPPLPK
# Method: as §1
# pyridoxal kinase (PDXK) = target: T3, pyridoxal kinase (PDXK) (Sus scrofa, UniProt O46560); test: Competition on agarose beads with porcine brain lysate (silver staining assay), pyridoxal kinase; format: binding; conditions: FIG. 1, 500 μM or 100 μM
# T3 construct: 1000 μg of porcine brain lysate; from tissue; host or cells: porcine brain lysate
# T3 sequence (O46560 whole entry): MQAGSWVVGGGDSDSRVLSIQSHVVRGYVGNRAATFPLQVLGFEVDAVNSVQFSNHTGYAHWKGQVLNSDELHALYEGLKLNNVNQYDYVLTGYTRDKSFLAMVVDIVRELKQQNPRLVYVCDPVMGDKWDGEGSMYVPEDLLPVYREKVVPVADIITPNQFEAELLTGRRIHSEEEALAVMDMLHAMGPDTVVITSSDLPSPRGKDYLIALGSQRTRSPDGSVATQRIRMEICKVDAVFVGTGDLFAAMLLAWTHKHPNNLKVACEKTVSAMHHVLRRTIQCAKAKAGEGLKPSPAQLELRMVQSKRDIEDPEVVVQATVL
# Text: Indeed, the interaction of the compounds of the invention with pyridoxal kinase has been determined by the following method: (silver staining assay)
# Erk2 [2] = target: T4, Erk2 (Sus scrofa, UniProt A0A8W4FG96); test: Competition on agarose beads with porcine brain lysate (silver staining assay), Erk2; format: binding; conditions: FIG. 1, 500 μM or 100 μM
# T4 construct: 1000 μg of porcine brain lysate; from tissue; host or cells: porcine brain lysate
# T4 sequence (A0A8W4FG96 1-358): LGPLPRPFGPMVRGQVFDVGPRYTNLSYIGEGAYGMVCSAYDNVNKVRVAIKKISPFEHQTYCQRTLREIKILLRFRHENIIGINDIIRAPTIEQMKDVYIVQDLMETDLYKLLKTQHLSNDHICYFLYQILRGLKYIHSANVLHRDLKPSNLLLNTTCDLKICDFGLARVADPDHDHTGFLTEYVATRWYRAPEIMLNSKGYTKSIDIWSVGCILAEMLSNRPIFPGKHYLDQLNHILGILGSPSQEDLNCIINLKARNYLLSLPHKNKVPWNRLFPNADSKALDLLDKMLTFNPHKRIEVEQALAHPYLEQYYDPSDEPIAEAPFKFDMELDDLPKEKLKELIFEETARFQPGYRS
# [3] = system: RNA polymerase II Ser2 phosphorylation; test: Western blot, RNA polymerase II Ser2 phosphorylation in SH-SY5Y; format: cell-based, human; conditions: FIG. 10
# Method: SH-SY5Y human neuroblastoma cells were grown in DMEM medium (Invitrogen, Cergy Pontoise, France). The HEK 293 human embryonic kidney cell line was grown in MEM medium from Invitrogen. Human foreskin primary fibroblasts (kindly provided by Dr. Gilles Ponzio) were grown in DMEM supplemented with 2 mM L-glutamine and 20 mM HEPES. All the media were supplemented with antibiotics (penicillin-streptomycin) from Lonza and 10% volume of FCS from Invitrogen. Cells were cultured at 37° C. with 5% CO2. Drug treatments were performed on exponentially growing cultures at the indicated time and concentrations. Control experiments were carried out using appropriate dilutions of DMSO. MDCK cell-lines were used to test compounds PKD.
# Cells were resuspended and lysed for 30 minutes at 4° C. in Homogenization Buffer [60 mM β-glycerophosphate, 15 mM p-nitrophenyl phosphate, 25 mM MOPS (pH 7.2), 15 mM EGTA, 15 mM MgCl2, 1 mM dithiothreitol, 1 mM sodium vanadate, 1 mM NaF, 1 mM phenylphosphate, 0.1% Nonidet P-40 and protease inhibitor cocktail] and sonicated. After centrifugation (14000 rpm for 15 minutes at 4° C.), the protein concentration was determined in the supernatants by the Bradford protein assay (Bio-Rad).
# Whole cell extracts were prepared in buffer containing 100 mM Tris/HCl (pH, 6.8), 1 mM EDTA, 2% SDS and protease inhibitor cocktail. Following heat denaturation for 5 minutes, proteins were separated on 10% or 7% NuPAGE pre-cast Bis-Tris or Tris-Acetate polyacrylamide mini gels (Invitrogen) with MOPS SDS (all but cytochrome C, RNA polymerase II and phospho-Ser2—RNA polymerase II Western blots), MES SDS (cytochrome C), or Tris-Acetate SDS (RNA polymerase II and phospho-Ser2—RNA polymerase II) running buffer depending on protein size. Proteins were transferred to 0.45 μm nitrocellulose filters (Schleicher and Schuell). These were blocked with 5% low fat milk in Tris-Buffered Saline—Tween-20, incubated for 1 h with antibodies (anti-actin: 1:2000) or overnight at 4° C. (cytochome C: 1:500), Rb (1:500), phosphor-Rb (1:500), phospho-Thr320-PP1α (1:1000), RNA polymerase II (1:500), phosphor-Ser2-RNA polymerase II (1:500), Mcl-1 (1:500), caspase-9 (1:1000) and analyzed by Enhanced Chemiluminescence (ECL, Amersham).
# LS 174T (Oncodesign) = test: Cell survival, LS 174T (Oncodesign); format: cell-based; conditions: Homo sapiens, LS174T; Table 6
# DYRK1A = DYRK1A (Homo sapiens, UniProt Q13627); test: DYRK1A kinase assay; format: biochemical
# Method: as §1
# (§5) The compounds were tested at various concentrations in the kinase assays, as described in the Methods section.
# CDK2/cyclin E = CDK2/cyclin E (Homo sapiens, UniProt P24941); test: CDK2/cyclin E kinase assay; format: biochemical; conditions: Table 5
# Method: as §3, §5
# CDK2/cyclin A = target: T5, CDK2/cyclin A (Homo sapiens, UniProt P24941); test: CDK2/cyclin A kinase assay; format: biochemical
# T5 construct: made in house; host or cells: insect cells
# Method: as §1
# CDK2/cyclin A (human, recombinant, expressed in insect cells) was assayed as described for CDK1/cyclin B.
# B2-CLL lymphocytes = test: Survival / cell death of B2-CLL lymphocytes from patients; format: cell-based, human; conditions: Homo sapiens, Lymphocyte
# Method: Cell viability was determined by measuring the reduction of 3-(4,5-dimethylthiazol-2-yl)-5-(3-carboxymethoxyphenyl)-2-(4-sulfophenyl)-2/H-tetrazolium (MTS). Cell death was determined by measuring the level of lactate dehydrogenase activity (LDH) released upon cell lysis.
# HCT116 (Oncodesign) = test: Cell survival, HCT116 (Oncodesign); format: cell-based; conditions: Homo sapiens, HCT-116; Table 6
# Erk2 [4] = target: Erk2 (Homo sapiens, UniProt P28482); test: Erk2 kinase assay; format: biochemical; conditions: Table 5
# Erk2 (Homo sapiens, UniProt P28482), sequence (P28482 whole entry, species assumed): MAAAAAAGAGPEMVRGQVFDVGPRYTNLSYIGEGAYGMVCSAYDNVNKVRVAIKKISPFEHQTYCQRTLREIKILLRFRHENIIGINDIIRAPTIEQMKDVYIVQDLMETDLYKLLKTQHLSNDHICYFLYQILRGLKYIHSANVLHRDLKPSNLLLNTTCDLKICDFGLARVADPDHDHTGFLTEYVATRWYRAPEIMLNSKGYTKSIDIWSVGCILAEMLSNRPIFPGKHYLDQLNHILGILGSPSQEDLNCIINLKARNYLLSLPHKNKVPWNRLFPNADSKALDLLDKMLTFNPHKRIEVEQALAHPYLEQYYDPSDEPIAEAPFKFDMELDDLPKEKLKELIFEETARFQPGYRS
# Method: as §1, §5
# [5] = system: HEK 293 human embryonic kidney cell line; test: Cell survival (MTS assay), HEK293; format: cell-based; conditions: HEK293, Table 4, MTS assay
# Method: as §2
# [6] = read-out: Inhibition of CK1, IC50
# [7] = read-out: Inhibition of the tumor cell-line SHSY-5Y, IC50
# [8] = read-out: Inhibition of CDK5/p25, IC50
# [9] = read-out: Inhibition of GSK3beta, IC50
# [10] = read-out: Inhibition of CDK1/cyclin B, IC50
# [11] = Table 4, MTS assay, read-out: SH-SY5Y cell survival
# [12] = read-out: Inhibition of DYRK1A, IC50
structure (smiles),measurement,setting,value
"CC(C)n1cnc2c(NCc3ccc(-c4ccccn4)cc3)cc(NC(CO)[C@@H](C)O)nc21 (stereo in doubt) [Ij, (R,R)-2-[[3-isopropyl-7-[[4-(2-pyridyl)phenyl]methylamino]imidazo[4,5-b]pyridin-5-yl]amino]butane-1,3-diol]",IC50,CK1δ/ε; [6],530 nM
same,IC50,[1]; [7],150 nM
same,IC50,CDK5/p25; [8],180 nM
same,IC50,GSK-3α/β; [9],13000 nM
same,IC50,CDK1/cyclin B; [10],150 nM
same,IC50,"CDK9/cyclin T; read-out: Inhibition of CDK9/cyclin T, IC50",140 nM
"CC[C@H](CO)Nc1nc(NCc2ccccc2)c2ncn(C(C)C)c2n1 [(R)-Roscovitine, Roscovitine]",competitor effect for pyridoxal kinase (PDXK),pyridoxal kinase (PDXK),exhibited a competitor effect
same,competitor effect for Erk2,Erk2 [2],exhibited a competitor effect
same,total RNA pol II,[3],essentially constant
"CC[C@@H](CO)Nc1cc(NCc2ccc(-c3ccccn3)cc2)c2ncn(C(C)C)c2n1 [(S)-perharidine D, (S)-7-[4-(2-Pyridyl)-benzylaminol]-5-[(2-butyl-1ol)amino]-3-iso-propylimidazo[4,5-b]pyridine]",IC50,LS 174T (Oncodesign),99 nM
same,IC50,"DYRK1A; Table 5, read-out: DYRK1A",2800 nM
same,IC50,"CK1δ/ε; Table 5, read-out: CK1",1900 nM
same,IC50,CDK2/cyclin E,100 nM
same,IC50,"CDK2/cyclin A; Table 5, read-out: CDK2/cyclin A",150 nM
same,IC50,"[1]; Table 6, MTS assay, read-out: SH-SY5Y cell survival",660 nM
same,IC50,"CDK5/p25; Table 5, read-out: CDK5/p25",200 nM
same,IC50,"B2-CLL lymphocytes; LLC B-cells, read-out: Cell death induction",130 nM
same,IC50,"B2-CLL lymphocytes; Table 6, read-out: Chronic Lymphocytic Leukemia cell survival",130 nM
same,IC50,"GSK-3α/β; Table 5, read-out: GSK-3α/β",24500 nM
same,IC50,HCT116 (Oncodesign),300 nM
same,IC50,"CDK1/cyclin B; Table 5, read-out: CDK1/cyclin B",270 nM
same,IC50,"CDK9/cyclin T; Table 5, read-out: CDK9/cyclin T",120 nM
same,IC50,Erk2 [4],9000 nM
CC(C)n1cnc2c(NCc3ccccc3)cc([N+](=O)[O-])nc21 [Formula Ie],IC50,"CK1δ/ε; Table 4, read-out: CK1",1000 nM
same,IC50,[1]; [11],74000 nM
same,IC50,"CDK5/p25; Table 4, read-out: CDK5",800 nM
same,IC50,"GSK-3α/β; Table 4, read-out: GSK3",> 10000 nM
same,IC50,[5],46000 nM
same,IC50,"CDK1/cyclin B; Table 4, read-out: CDK1",1000 nM
CC(C)n1cnc2c(NCc3ccccc3)cc(N)nc21 [Formula If],IC50,"CK1δ/ε; Table 4, read-out: CK1",8000 nM
same,IC50,[1]; [11],> 100000 nM
same,IC50,"CDK5/p25; Table 4, read-out: CDK5",3800 nM
same,IC50,"GSK-3α/β; Table 4, read-out: GSK3",> 10000 nM
same,IC50,[5],> 100000 nM
same,IC50,"CDK1/cyclin B; Table 4, read-out: CDK1",4000 nM
CC(C)n1cnc2c(NCc3ccccc3)cc(NC(=O)C(F)(F)F)nc21 [Formula Ig],IC50,"CK1δ/ε; Table 4, read-out: CK1",3000 nM
same,IC50,[1]; [11],> 100000 nM
same,IC50,"CDK5/p25; Table 4, read-out: CDK5",630 nM
same,IC50,"GSK-3α/β; Table 4, read-out: GSK3",> 10000 nM
same,IC50,[5],> 100000 nM
same,IC50,"CDK1/cyclin B; Table 4, read-out: CDK1",530 nM
"CC(C)n1cnc2c(NCc3ccc(-c4ccccn4)cc3)cc(NC[C@H](O)CO)nc21 [Ik, (2S)-3-[[3-isopropyl-7-[[4-(2-pyridyl)phenyl]methylamino]imidazo[4,5-b]pyridin-5-yl]amino]propane-1,2-diol]",IC50,CK1δ/ε; [6],380 nM
same,IC50,"CDK2/cyclin A; unit inferred, read-out: Inhibition of CDK2/cyclin A, IC50",120 nM
same,IC50,[1]; [7],180 nM
same,IC50,CDK5/p25; [8],170 nM
same,IC50,GSK-3α/β; [9],> 10000 nM
same,IC50,CDK1/cyclin B; [10],200 nM
"CC[C@@H](CO)Nc1cc(NCc2ccc(-c3ccccc3)cc2)c2ncn(C(C)C)c2n1 [Il, (2S)-2-[[3-isopropyl-7-[(4-phenylphenyl)methylamino]imidazo[4,5-b]pyridin-5-yl]amino]butan-1-ol]",IC50,DYRK1A; [12],4500 nM
same,IC50,CK1δ/ε; [6],2000 nM
same,IC50,"CDK5/p25; unit inferred, read-out: Inhibition of CDK5/p25, IC50",600 nM
same,IC50,GSK-3α/β; [9],> 10000 nM
"CC[C@H](CO)Nc1cc(NCc2ccc(-c3ccccc3)cc2)c2ncn(C(C)C)c2n1 [Im, (R) 2-[[3-isopropyl-7-[(4-phenylphenyl)methylamino]imidazo[4,5-b]pyridin-5-yl]amino]butan-1-ol]",IC50,CK1δ/ε; [6],1200 nM
same,IC50,CDK5/p25; [8],810 nM
"CC[C@@H](N)COc1cc(NCc2ccc(-c3ccccc3)cc2)c2ncn(C(C)C)c2n1 [In, (R)-5-(2-aminobutoxy)-3-isopropyl-N-[(4-phenylphenyl)methyl]imidazo[4,5-b]pyridine-7-amine]",IC50,DYRK1A; [12],4000 nM
same,IC50,CK1δ/ε; [6],120 nM
same,IC50,CDK5/p25; [8],550 nM
same,IC50,GSK-3α/β; [9],7000 nM
"CC[C@H](N)COc1cc(NCc2ccc(-c3ccccc3)cc2)c2ncn(C(C)C)c2n1 [Ip, (S)-5-(2-aminobutoxy)-3-isopropyl-N-[(4-phenylphenyl)methyl]imidazo[4,5-b]pyridin-7-amine]",IC50,DYRK1A; [12],3300 nM
same,IC50,CK1δ/ε; [6],220 nM
same,IC50,GSK-3α/β; [9],7000 nM
"CC(C)n1cnc2c(NCc3ccc(-c4ccccn4)cc3)cc(NC(CO)CO)nc21 [Perharidine E, 3-Iso-Propyl-5-(1,3-dihydroxypropylamino)-7-[4-(2-pyridyl)-benzylamino]-imidazo[4,5-b]pyridine]",IC50,CK1δ/ε; [6],280 nM
same,IC50,CDK5/p25; [8],340 nM and 350 nM
